According to US20250114335A1, “METHODS AND COMPOSITIONS FOR THE TREATMENT OF EPILEPSY” (ARIZONA BOARD OF REGENTS ON BEHALF OF THE UNIVERSITY OF …, priority 2022, published 2025):
Where “and” joins values, the source holds several entries; their conditions need not be identical. Equal entries are not always repeated.

Assays:
Type in all cases: in vivo, mouse
[1] = system: C3H-D/D (Scn8a-N1768D) adult mice; test: Survival and seizure frequency, adult C3H-D/D mice followed until death; details: for #Days survived postTC / #TCs / #TCs/day (PostTC) / #gaps (av) / Age at Death / Age at Onset / gap days / mean gap length: Treated; for observed standard effect size, Kaplan-Meier survival: treated versus untreated
Text: Mouse strains: The C57BL/6J-N1768D congenic mouse (B6-D/+) was used for phenotyping, RNAseq, and BBB studies. In addition, a hybrid strain that was produced by backcross breeding to transfer the Scn8a-N1768D allele from the B6 to the C3H/HeJ strain background was used to further assess the effect of CND on survival and seizure frequency. After constructing an F1 by crossing male B6-D/+ heterozygotes to female C3H/HeJ, five rounds of backcrossing (N6) produced a […] and 98.5% C3H/HeJ-N1768D line (C3H-D/+). Sister-brother mating maintained the 98.5% C3H background. […] C3H-D/D mice have a delayed seizure onset (˜40-45 days) and an extended survival (65-70 days) with intermittent bouts of TCs (FIG. 1A).
Phenotyping: Female and male mice on both the B6 and C3H backgrounds were housed in sex-specific groups of 3-4 per cage in a pathogen-free mouse facility with a 14 h light/10 h dark cycle (lights turned on at 5 am). A 24/7 video monitoring system was utilized to collect seizure data, with infrared illumination to monitor behavior during the dark period. Seizures were counted as individual TCs. Adult mice were followed from the age of 6 weeks, a period of time well before seizure onset, in order to identify the day of seizure onset. A seizure bout was defined as a cluster of seizures on consecutive days, and a gap as a seizure-free period of 3 days or more.
Preparation of CND suspension for injections and oral dosing: Juvenile B6-D/D and adult B6-D/+ mice were given subcutaneous (s.c.) injections with either CND (2-4 mg/kg/day; doses that fall within the FDA-approved range for CND in both adults and children) or vehicle (VEH) (Sigma-Aldrich) (FIG. 1B). Oral dosing of adults was performed by thoroughly mixing 160 μl of suspension containing 1.28 mg of CND or VEH with 5 g of pure (organic) peanut butter in a petri dish. Mice were given 1 g pellet per mouse each day. Pellets were weighed each day to record the amount consumed, and 24/7 video was used to verify that each mouse was consuming the pellet. An average of 0.79 g (±0.36 g) was consumed by an adult mouse (˜20-25 g), corresponding to 9.1±4.2 mg/kg/day. No correlations were found for the amount of CND consumed and lifetime survival or number of TCs.
Data for the untreated mice were previously reported. Table 1 also provides C3H-D/D summary statistics for female untreated (N=15) and treated (N=15) and male untreated (N=27) and treated (N=16) monitored until the time of death.

[2] = system: hippocampal gene expression; test: RNAseq and pathway analysis of hippocampal tissue, B6-D/D juveniles
Procedure: (§1) Transcriptome studies: B6-D/D and wild-type (+/+) (n=3) were administered CND or VEH by s.c. injection for a period of 5 days starting at P15 and sacrificed for removal of hippocampal tissue (n=12) (FIG. 1B). Adult B6-D/+ male (n=3) mice were administered CND or VEH pellets as described above at the time of seizure onset and monitored for seizures for an extended period before sacrifice and removal of hippocampal tissue (100-160 d) (i.e., to match the age at which a VEH-treated male B6-D/+ experience ˜20 TCs) (FIG. 1B).
(§2) RNA sequencing: Hippocampal tissues from 21 mice were obtained according to a sampling strategy that compared (1) untreated (VEH only) and treated B6-D/D (n=3) with age-matched B6-+/+ controls (n=3 per group), (2) untreated (VEH only) male B6-D/+ mice that had experienced ˜20 TCs (n=3 per group) with age-matched B6-+/+ controls (n=3 per group), and (3) male B6-D/+ mice that were treated with CND for an extended period (n=3 per group). Brains of treated and untreated mice were dissected to yield tissue samples from the hippocampus. Bulk tissue was stored in RNALater (Qiagen, Valencia, CA) at −80 degrees centigrade. The technique for analyzing hippocampal gene expression was performed. Briefly, RNA was isolated from hippocampal tissue, and initial QC was performed. Libraries were constructed using a stranded mRNA-Seq Kit, and average fragment size was assessed. After concentrations were determined with an adaptor-specific qPCR kit, equimolar samples were pooled and clustered for sequencing on a Novaseq instrument (Illumina). Sample data were demultiplexed, trimmed, and quality filtered, and Fastq files were splice-aligned against the […] reference genome using STAR aligner version 2.5.2b. Gene expression counts were obtained using htseq-count version 0.6.1. Both splice alignment and counting were performed with Ensembl Annotation of the NCBI reference genome, and raw counts were analyzed with edgeR version 3.16.5.
(§3) Data and pathway analysis: Results of statistical summaries were generally expressed as mean±SD. Kaplan-Meier survival curves were used to test for differences in survival. […] A ‘perturbation signature’ approach was used to identify genome-wide differences in transcript abundance between transgenic mice (i.e., D/+, D/D, or +/+) that were untreated (VEH) or treated with CND. Differential expression analysis was performed. Briefly, the exactTest function was utilized in edgeR, and gene expression counts were first normalized using the calcNormFactors function. DEG analysis was performed on treatment versus control groups at two different ages using three biological replicates per group, which has been shown in power analyses to be sufficient to yield a true positive rate greater than 80% under the conditions used here. Multidimensional scaling (MDS) plots were constructed using the ‘plotMDS’ function in edgeR, which plots samples on a 2D scatterplot so that distances on the plot approximate the typical log 2 fold changes between samples. […] Rather than focusing on any single gene, bioinformatic analyses of our RNAseq data identified the most statistically significant biological pathways that were enriched given the set of DEGs in each experiment.

[3] = system: hippocampal gene expression; test: RNAseq and pathway analysis of hippocampal tissue, B6-D/+ adult males
Procedure: as §1, §2, §3

[4] = CND-treated B6-D/D, FDR-adjusted P-value <0.05
[5] = treated juveniles, FDR cutoff 0.25

Compound: CCOc1nc2cccc(C(=O)O)c2n1Cc1ccc(-c2ccccc2-c2nnn[nH]2)cc1 [CND, candesartan]
- #Days survived postTC ([1]; C3H Females (D/D)): 68.9 days
- #TCs ([1]; C3H Females (D/D)): 30.1 TCs
- #TCs/day (PostTC) ([1]; C3H Females (D/D)): 0.51 TCs/day
- #gaps (av) ([1]; C3H Females (D/D)): 7.5
- Age at Death ([1]; C3H Females (D/D)): 117.4 ± 28.0 days and 117.4 days
- Age at Onset ([1]; C3H Females (D/D)): 48.5 days
- gap days ([1]; C3H Females (D/D)): 44.0 days
- mean gap length ([1]; C3H Females (D/D)): 5.8 days
- #Days survived postTC ([1]; C3H Males (D/D)): 68.9 days
- #TCs ([1]; C3H Males (D/D)): 37.4 TCs
- #TCs/day (PostTC) ([1]; C3H Males (D/D)): 0.57 TCs/day
- #gaps (av) ([1]; C3H Males (D/D)): 9.8
- Age at Death ([1]; C3H Males (D/D)): 117.1 ± 20.4 days and 117.1 days
- Age at Onset ([1]; C3H Males (D/D)): 48.1 ± 5.1 days and 48.1 days
- gap days ([1]; C3H Males (D/D)): 44.4 days
- mean gap length ([1]; C3H Males (D/D)): 4.7 days
- increase in survival, treated versus untreated ([1]; C3H-D/D females): 47.5%
- reduction in post-onset seizure frequency ([1]; C3H-D/D females): 78.4%
- observed standard effect size, Kaplan-Meier survival ([1]; C3H-D/D females): 0.83
- increase in survival, treated versus untreated ([1]; C3H-D/D males): 49.2%
- reduction in post-onset seizure frequency ([1]; C3H-D/D males): 48.0%
- observed standard effect size, Kaplan-Meier survival ([1]; C3H-D/D males): 0.79
- TREATED z-score, upstream regulator ACKR2 ([2]; B6-D/D Juveniles): −2.00
- TREATED z-score, upstream regulator IL1B ([2]; B6-D/D Juveniles): 1.76
- TREATED z-score, upstream regulator PTGER4 ([2]; B6-D/D Juveniles): −2.43
- TREATED z-score, upstream regulator SIRT1 ([2]; B6-D/D Juveniles): −2.83
- TREATED z-score, upstream regulator TGFB1 ([2]; B6-D/D Juveniles): 0.42
- TREATED z-score, upstream regulator TNF ([2]; B6-D/D Juveniles): 1.32
- TREATED z-score, upstream regulator lipopolysaccharide ([2]; B6-D/D Juveniles): 3.19
- number of down-regulated DEGs [2, 4]: 25
- number of up-regulated DEGs [2, 4]: 50
- z-score, EIF2 Signaling pathway [2, 5]: 3.2
- z-score, Granzyme A Signaling pathway [2, 5]: −3.4
- z-score, Mitochondrial Dysfunction pathway [2, 5]: −3.8
- z-score, Oxidative Phosphorylation pathway [2, 5]: 5.0
- odds ratio, enhancement of ETC gene activation in treated versus untreated ([2]; treated juveniles, FDR≤0.25, 95% CI=3.5-979): 23 fold
- TREATED z-score, upstream regulator ERBB2 ([3]; B6-D/+ Adult males): −2.00
- TREATED z-score, upstream regulator NUPR1 ([3]; B6-D/+ Adult males): −2.00
- TREATED z-score, upstream regulator PTGS2 ([3]; B6-D/+ Adult males): -2.8
- number of canonical pathways predicted to be activated ([3]; CND-treated B6-D/+ adult males): 11
- number of canonical pathways predicted to be deactivated ([3]; CND-treated B6-D/+ adult males): 3
- number of enriched canonical pathways ([3]; CND-treated B6-D/+ adult males): 14
- number of DEGs ([3]; CND-treated B6-D/+ males): 86
- number of down-regulated DEGs ([3]; CND-treated B6-D/+ males): 10
- number of up-regulated DEGs ([3]; CND-treated B6-D/+ males): 76
